Measured values from US5547940A, “Method for stimulating proliferation of colon cells using POMC76-103” (Ludwig Institute for Cancer Research, priority 1994, dated 1996).
“And” between values parts separate entries of the source, which are not always exact repeats. Equal values may be shown once. Read-outs that look alike come from different tables or passages of the source. Peptide text beside a SMILES is read from it.

Assays:
colonic crypt cells = test: Growth factors together with LIM 2537 conditioned medium on colonic crypt cells (synergism); type: cell-based; conditions: tested on murine colonic crypt cells
Method: In another set of experiments, human colonic crypt cells were tested with conditioned medium from LIM 2537, together with different growth factors.

LIM 1215 cells [1] = system: LIM 1215 cells
Source text: The material was synthesized, using art recognized techniques, and was then used in a mitogenic assay on LIM 1215 cells, following Nice et al., J. Biol. Chem. 266: 14425-14430 (1991), which is incorporated by reference in its entirety.

LIM 1215 cells [2] = test: Colony formation of LIM 1215 cells in semi-solid agar; type: cell-based, human; conditions: rhEGF 10 ng/ml alone
Method: Colony formation using various factors was studied. Cells of cell line LIM 1215 were cloned in semi-solid agar (0.3%) following Whitehead et al., Int. J. Canc. 46:858-863 (1990). Briefly, the cells were trypsinized and resuspended in RPMI 1640 plus 5% FCS. Cells in the suspension were counted and then resuspended in a mixture of 0.3% agar in RPMI 1640 plus 10% FCS (40° C.), at a concentration of 10^4 cells per ml. The mixture was plated in 1.5 volumes in 35 mm^2 dishes, and allowed to set. Plates were then incubated at 37° C. in 5% CO2 and 100% humidity for 14 days. A solution of 0.1% crystal violet was aded to the plates, and colonies of more than 40 cells were counted.
Conditioned medium was prepared by incubating confluent monolayers of colon carcinoma cell lines with fresh RPMI 1640 plus 5% FCS for 48 hours. Medium was then removed, sterilized by filtration, and added to the agar plates at a final concentration of 10% (v/v). […] See Whitehead, supra.
The effect of the POMC76-103, alone and combination with epidermal growth factor (EGF) was investigated. The peptide and recombinant human EGF ("rhEGF") were tested alone, and combined, in colony formation assays as described supra.

EGF: epidermal growth factor
synergism with the LIM 2537 conditioned medium (colonic crypt cells): None of these factors showed any synergism | stimulation index (LIM 1215 cells [1]; LIM 1215 cells, FIGS. 16A/16B): 8 fold | EC50 (LIM 1215 cells [1]; mitogenic assay, LIM 1215 cells): 0.05 nM

CSCC[C@H](NC(=O)[C@@H](NC(=O)[C@H](Cc1ccc(O)cc1)NC(=O)[C@@H](N)CCCCN)C(C)C)C(=O)NCC(=O)N[C@@H](Cc1c[nH]cn1)C(=O)N[C@@H](Cc1ccccc1)C(=O)N[C@@H](CCCNC(=N)N)C(=O)N[C@@H](Cc1c[nH]c2ccccc12)C(=O)N[C@@H](CC(=O)O)C(=O)N[C@@H](CCCNC(=N)N)C(=O)N[C@@H](Cc1ccccc1)C(=O)NCC(=O)N[C@@H](CCCNC(=N)N)C(=O)N[C@@H](CCCNC(=N)N)C(=O)N[C@@H](CC(N)=O)C(=O)NCC(=O)N[C@@H](CO)C(=O)N[C@@H](CO)C(=O)N[C@@H](CO)C(=O)N[C@@H](CO)C(=O)NCC(=O)N[C@H](C(=O)NCC(=O)NCC(=O)N[C@@H](C)C(=O)N[C@@H](C)C(=O)N[C@@H](CCC(N)=O)C(=O)O)C(C)C [POMC76-103] (H-KYVMGHFRWDRFGRRNGSSSSGVGGAAQ-OH)
EC50 (LIM 1215 cells [1]): ~0.075 nM

PDGF
synergism with the LIM 2537 conditioned medium (colonic crypt cells): None of these factors showed any synergism

IL-6: interleukin 6
synergism with the LIM 2537 conditioned medium (colonic crypt cells): None of these factors showed any synergism

rhEGF: recombinant human EGF
LIM 1215 Colony Stimulating Activity, Colonies (LIM 1215 cells [2]): 300 and 320
